Measurements published in patent US11844801B2, “Oral compositions of MK2 pathway inhibitor for treatment of immune conditions” (priority 2020, dated 2023).
Entries after “also recorded” stand apart in the source; their conditions may differ.

Key:
[1] = test system: p-HSP27 (phosphorylated heat shock protein 27); test: Ex vivo LPS-stimulated p-HSP27 in blood of dosed healthy subjects, PK/PD inhibitory Emax model; parameters: species or system human
Protocol: Blood samples of 10 mL were collected for PD analysis. For the SAD cohorts, blood was collected before dosing and 1, 12, and 24 hours after dosing. For the MAD cohorts, on day 1 blood was collected before the morning dose and 4 and 12 hours after the morning dose (prior to the evening dose); on day 7, blood was collected before the morning dose and 4 and 12 hours after the morning dose.
Additional details of the assays for analyzing p-HSP27 and cytokines are included in the Supplementary Information.
Pharmacodynamics. PD data analysis was conducted using Microsoft Excel 2010 (Microsoft, Redmond, WA), Meso Scale Discovery Workbench® analysis software (Rockville, MD), and Phoenix WinNonlin, version 8.2.
Sample Preparation for p-HSP27 Analysis. […] Treatment groups consisted of 3 tubes for group ‘A’, 2 tubes for group ‘B’, and 1 tube for group ‘C’.
Dimethyl sulfoxide (DMSO) was added to all tubes in groups ‘A’ and ‘C’ to a final concentration of 0.1% (10 μL per mL of a 10% DMSO solution in Dulbecco's Modified Eagle Medium (DMEM) containing 10% fetal bovine serum (FBS) and 1% penicillin/streptomycin/glutamine). Samples were then rocked gently at room temperature. […] Samples were then rocked gently at room temperature for a minimum of 1 hour.
Samples in groups ‘A’ and ‘B’ were stimulated with lipopolysaccharide at a final concentration of 100 ng/mL for 22 minutes at room temperature. A stock solution of lipopolysaccharide at 1 mg/mL in DMEM containing 10% FBS and 1% penicillin/streptomycin was diluted to 10 μg/mL in DMEM containing 10% FBS and 1% penicillin/streptomycin, and 10 μL of this working solution was added per mL of blood. Samples were gently rocked at room temperature for 11 minutes, then placed upright for 11 minutes prior to peripheral blood mononuclear cells (PBMC) isolation.
Ten μL of DMEM containing 10% FBS only was added per mL of blood in group ‘C’ for all patient samples (unstimulated samples). Samples were gently rocked at room temperature for 11 minutes, then placed upright for 11 minutes prior to PBMC isolation.
Upon completion of treatment (lipopolysaccharide stimulated or unstimulated) for each sample, PBMCs were isolated from each human whole blood aliquot in all treatment groups. One mL of blood from each sample was gently layered onto 0.75 mL of Histopaque-1077 in a 2-mL microcentrifuge tube. Histopaque-1077 was maintained at room temperature. The samples were centrifuged for 2 minutes at 16,000×g in an Eppendorf microcentrifuge. The interface and upper layers were removed and added to tubes containing 1 mL cold Dulbecco's phosphate-buffered saline (DPBS). These samples were then centrifuged for 30 seconds at 16,000×g in an Eppendorf microcentrifuge to pellet the cells. The buffer supernatant was removed by aspiration and the pellets were re-suspended in 1 mL of cold DPBS. The pellets from each sample were then re-pelleted, as described above. […]
Analysis of p-HSP27 (Ser78) Levels Using Luminex Technology. The lysates were analyzed for HSP27 phosphorylation with a custom Milliplex® MAP Human Phospho-HSP27(Ser78) Cell Signaling Magnetic Bead Kit from Millipore Sigma (Burlington, MA) using the kit-prescribed immunoassay protocol for a 96-well solid plate and hand-held magnetic separation block. […]

IL-6 = test: Poly(I:C) stimulated IL-6 production in human whole blood; assay type: cell-based; details: 100 ug/mL, 24 hr
Protocol: Human whole blood assays were performed as described above with the exceptions listed below. […] Compounds were serially diluted in 100% DMSO (Sigma-Aldrich, D2650) followed by a 25× dilution into DMEM/10% FBS (Gibco, 11965/26140). After the one-hour incubation with the compounds or vehicle, 20 μL of poly(I:C) (InvivoGen, HMW, tlrl-pic), in DPBS (Gibco, 14190-136) was added for a final concentration of 100 μg/mL to each well except for the no stimulus wells. After twenty-four hours of incubation with poly(I:C), plasma was harvested and assayed for IP10, IFNγ, IL-6, IL-8 and TNF-α using Meso Scale Discovery Technology V-plex human cytokine kits according to the kit protocol.

IL-1β = test: R848 stimulated IL-1β production in human whole blood; assay type: cell-based; details: R848, 0.5 ug/mL, 5 hr
Protocol: (§1) Human whole blood assays were performed as described above with the exceptions listed below. […] Compounds were serially diluted in 100% DMSO (Sigma-Aldrich, D2650) followed by a 10× dilution into RPMI (Gibco, 11875). After the one-hour incubation with the compounds or vehicle, 2 μL of R848 (InvivoGen, tlrl-r848) in RPMI (Gibco, 11875) was added for a final concentration of 0.5 μg/mL to each well except for the no stimulus wells. After five hours of incubation with R848, plasma was harvested and assayed for TNF-α, IL-1β, IL-6 and IL-8 using Meso Scale Discovery Technology V-plex human cytokine kits according to the kit protocol.

TNF-α [2] = test: R848 stimulated TNF-α production in human whole blood; assay type: cell-based; details: R848, 0.5 ug/mL, 5 hr
Protocol: as §1

IL-10 = test: Ex vivo stimulated IL-10 in blood of subjects dosed 80 mg or 120 mg; parameters: species or system human; details: 80 mg or 120 mg BID
Protocol: Methods: Safety, pharmacokinetics (PK) and pharmacodynamics (PD) were assessed in two cohorts of subjects in a randomized, observer-blind, placebo-controlled study in male and female healthy subjects aged 18-55 (n=77). The study consisted of twenty (20) subjects enrolled into 2 cohorts. […] The final dose was administered in the morning on Day 7. Blood samples were obtained Day 1—before dosing, Day 1—4 hours after dosing and Day 1—12 hours after dosing and Day 7—before dosing, Day 7—4 hours after dosing, day 7—12 hour after dosing and Day 7—24 hours after dosing for each subject.

[3] = test system: TNF-α, IL-1β, IL-6, and IL-8; test: Phase 2a RA study: ex vivo LPS-stimulated cytokines in patient blood; parameters: species or system human; details: 50 mg BID, 12 weeks
TNF-α [4] = test: Mouse neutrophil (mPMN) IL-1α stimulated TNF-α; assay type: cell-based
Protocol: Biosynthesis of […] was quantified using MSD technology. […] Cells and compound were stimulated with mouse IL-1α to a final concentration of 10 ng/mL and incubated for 4 hours at 37° C. Supernatants were collected and TNF-α levels quantitated using MSD technology.

Q: For `Cc1cnc(-c2ccnc(C(C)(C)O)n2)cc1-n1c(C)cc(OCc2ncc(F)cc2F)c(Cl)c1=O` (single isomer, unassigned) [ATI-450, 3-chloro-4-((3,5-difluoropyridin-2-yl)methoxy)-2′-(2-(2-hydroxypropan-2-yl)pyrimidin-4-yl)-5′,6-dimethyl-2H-[1,4′-bipyridin]-2-one], which “Cmax (Multiple of IC80)” value ([1]; 50 mg BID, day 7) is on record?
A: 6.0x

Q: And the “Ctrough (Multiple of IC80)” value ([1]; 50 mg BID, day 7)?
A: 2.4x

Q: And the IC80 ([1]; Homo sapiens, calculated from IC50, combined SAD and MAD data, read-out: IC80, plasma concentration at 80% of maximal inhibition)?
A: 0.0367 µg/mL

Q: And the IC50 ([1]; Homo sapiens, inhibitory Emax model, combined SAD and MAD data, read-out: IC50, plasma concentration at half maximal inhibition)?
A: 0.0092 µg/mL

Q: What about the “IC80, plasma concentration at 80% of maximal inhibition” value ([1]; calculated from IC50, combined SAD and MAD data) of the same molecule?
A: 0.0367 µg/mL

Q: What about the IC50 (IL-6) of the same molecule?
A: 13.2 ± 12.8 nM

Q: What about the IC50 (IL-1β) of the same molecule?
A: 95.6 ± 34.8 nM

Q: What about the IC50 (TNF-α [2]) of the same molecule?
A: 34.8 ± 5 nM

Q: And the IL-10 modulation (IL-10)?
A: 25-30%

Q: What about the “ex vivo stimulated cytokines in RA patient blood” value [3] of the same molecule?
A: sustained inhibition of proinflammatory cytokines; also recorded: marked and durable inhibition

Q: What about the IC50 (TNF-α [4]; Mus musculus, Neutrophil, mPMN, IL-1α, 10 ng/mL, 4 hr) of the same molecule?
A: 5 nM

Q: What about the “IL-1α mediated TNF-α signaling in neutrophils” value (TNF-α [4]; mouse IL-1α 10 ng/mL, 4 hours) of the same molecule?
A: dose dependently inhibits
